Like-named read-outs stand apart in the source and are kept apart here.
How the values were obtained:
M. tuberculosis H37Rv = experiment: M. tuberculosis growth inhibition assay; details: read-out: Mtb IC90; concentration that inhibits 90% of growth, OD600, 5 days; ± standard error
E. coli (K12) = experiment: E. coli growth inhibition assay; assay type: cell-based, Escherichia coli; details: read-out: Ec IC50
[1] = calculated, Pipeline Pilot program; cited from earlier work
B. subtilis = B. subtilis growth inhibition assay; assay type: cell-based, Bacillus subtilis; details: read-out: Bs IC50
[2] = rats; cited from earlier work
human CYP2D6 = details: 30 min incubation with CYP2D6; cited from earlier work
[3] = for Rabbit 1 concentration in lung tissue / Rabbit 2 concentration in lung tissue: in vivo; for amount formed on a per-site basis in lung tissue: lung concentration divided by number of equivalent adamantyl sites
human CYP2C19 = details: 30 min incubation with CYP2C19; cited from earlier work
[4] = dogs; cited from earlier work
M. smegmatis = M. smegmatis growth inhibition assay; assay type: cell-based, Mycobacterium smegmatis; details: read-out: Ms IC50, OD600, 48 h, ± standard error
[5] = growth inhibition, OD600, 12 h, ± standard error

| SMILES | IC90 (M. tuberculosis H37Rv) [µM] | IC50 (E. coli (K12); Escherichia coli, 12 h) [µM] | pKa (adamantylamine NH) [1] | pKa (geranylamine NH) [1] | IC50 (B. subtilis; Bacillus subtilis, 12 h) [µM] | [14C-SQ109] half-life [2] [h] | SQ109 remaining (human CYP2D6) [%] | Rabbit 1 concentration in lung tissue ([3]; female, New Zealand White) | Rabbit 2 concentration in lung tissue ([3]; female, New Zealand White) | SQ109 remaining (human CYP2C19) [%] | [14C-SQ109] half-life [4] [h] | IC50 (E. coli (K12); [5]) [µM] | IC50 (B. subtilis; [5]) [µM] | Rabbit 1 concentration in lung tissue [3] | Rabbit 2 concentration in lung tissue [3] | IC50 (M. smegmatis) [µM] | amount formed on a per-site basis in lung tissue [3] |
| --- | --- | --- | --- | --- | --- | --- | --- | --- | --- | --- | --- | --- | --- | --- | --- | --- | --- |
| CC(C)=CCC/C(C)=C/CNCCNC1C2CC3CC(C2)CC1C3 (stereo not drawn) [Compound 1, SQ109] | 1 ± 0.05 | 15 ± 0.26 | 12.7 | 5.63 | 16 ± 0.14 | > 5 | 0.8 | 37000 (4600) ng/g | 45000 (21000) ng/g | 45 | > 5 |  |  |  |  |  |  |
| NCCNC1C2CC3CC(C2)CC1C3 (stereo not drawn) [Compound 7, N′-adamantylethylenediamine] | > 25 |  |  |  |  |  |  |  |  |  |  | > 500 | > 500 | 5500 (360) ng/g | 7700 (2200) ng/g | > 500 |  |
| C/C(=C\CC/C(C)=C/CNCCNC1C2CC3CC(C2)CC1C3)CO (stereo not drawn) [Compound 9, (2E,6E)-8-((2-(((1r,3r,5r,7r)-Adamantan-2-yl)amino)ethyl)-amino)-2,6-dimethylocta-2,6-dien-1-ol] | > 24 |  |  |  |  |  |  |  |  |  |  | 267 ± 4.3 | > 500 | 720 (47) ng/g | 850 (190) ng/g | 55 ± 1.4 |  |
| C/C(=C\CNCCNC1C2CC3CC(C2)CC1C3)CCC(=O)C(C)C (stereo not drawn) [Compound 12, (E)-8-((2-(((1r,3r,5r,7r)-adamantan-2-yl)amino)-ethyl)amino)-2,6-dimethyloct-6-en-3-one] | 17 ± 4.5 |  |  |  |  |  |  |  |  |  |  | 57 ± 2.3 | 176 ± 5.1 | 91 (20) ng/g | 220 (110) ng/g | 22 ± 1.5 |  |
| CC(C)=CCC/C(C)=C/C=O [Compound 13, geranial] | > 25 |  |  |  |  |  |  |  |  |  |  | > 500 | > 500 | BLQ | BLQ | > 500 |  |
| CC(C)=CCC/C(C)=C/C(=O)O [Compound 14, geranic acid] | > 25 | > 500 |  |  | > 500 |  |  |  |  |  |  |  |  | BLQ | BLQ |  |  |
| CC(C)=CCC/C(C)=C/C=NO [Compound 15a, geranial oxime] | > 25 |  |  |  |  |  |  |  |  |  |  | > 500 | > 500 | BLQ | BLQ | > 500 |  |
| ON=C1C2CC3CC(C2)CC1C3 [Compound 16, adamantan-2-one oxime] | > 25 | > 500 |  |  | > 500 |  |  |  |  |  |  |  |  | BLQ | BLQ |  |  |
| CC(C)=CCC/C(C)=C/CN [Compound 17, geranylamine] | > 25 |  |  |  |  |  |  |  |  |  |  | > 500 | > 500 | BLQ | BLQ | > 500 |  |
| NC1C2CC3CC(C2)CC1C3 (stereo not drawn) [Compound 18, 2-aminoadamantane] | > 25 | > 500 |  |  | > 500 |  |  | 170(49) ng/g | 270(27) ng/g |  |  |  |  |  |  |  |  |
| O=C1C2CC3CC(C2)CC1C3 [Compound 19, 2-adamantanone] | > 25 | > 500 |  |  | > 500 |  |  |  |  |  |  |  |  |  |  |  |  |
| CC(C)=CCC/C(C)=C/CNCCN [Compound 20, geranylethylenediamine] | > 25 |  |  |  |  |  |  |  |  |  |  | > 500 | > 500 | 310(14) ng/g | 330 (54) ng/g | > 500 |  |
| CC(C)=CCC/C(C)=C/CNCCNC1C2CC3CC1CC(C2)C3O (stereo not drawn) [Compound 23, (1r,3r,5r,7r)-6-((2-(((E)-3,7-Dimethylocta-2,6-dien-1-yl)-amino)ethyl)amino)adamantan-2-ol] | > 25 |  |  |  |  |  |  |  |  |  |  | 52 ± 2.5 | 184 ± 4.5 | 1200 (210) ng/g | 3500 (1200) ng/g | 68 ± 2.5 | 6.8 µM |
| CC(C)=CCC/C(C)=C/CNCCNC1[C@H]2C[C@@H]3C[C@H](C2)C(O)[C@H]1C3 (stereo partly drawn) [Compound 24, (1R,3S,5S,7R)-4-((2-(((E)-3,7-Dimethylocta-2,6-dien-1-yl)-amino)ethyl)amino)adamantan-2-ol] | 6.2 ± 0.27 | 158 ± 4.5 |  |  | 166 ± 0.5 |  |  | 820 (170) ng/g | 2100 (680) ng/g |  |  |  |  |  |  |  | ~ 1 μM |

Source: article PMC8918016 (ACS infectious diseases, 2021)
